Measured values as given in ChEMBL document CHEMBL5230088 (Eur J Med Chem, 2020).

Columns and labels:
[1] = Cytotoxicity against African green monkey Vero E6 cells; type: toxicity, cell-based, Vero C1008; conditions: chlorocebus sabaeus
[2] = test system: Middle East respiratory syndrome-related coronavirus; assay: Antiviral activity against MERS-CoV infected in HLE cells assessed as inhibition of viral replication; type: functional, organism-based
[3] = test system: Middle East respiratory syndrome-related coronavirus; assay: Antiviral activity against MERS-CoV infected in HAE cells; type: functional, organism-based
SARS-CoV-2 = assay: Antiviral activity against SARS-CoV-2 infected in HAE cells assessed as reduction in viral infection; type: functional, organism-based; conditions: Severe acute respiratory syndrome coronavirus 2, HAE
Human coronavirus OC43 = assay: Antiviral activity against HCoV-OC43; type: functional, organism-based; conditions: Betacoronavirus 1
[4] = Cytotoxicity against human Huh-7 cells by celltiter-glo Assay; type: toxicity, cell-based
Murine hepatitis virus = assay: Antiviral activity against MHV infected in mouse Astrocytoma delayed brain tumor (DBT) cells; type: functional, organism-based; conditions: Murine coronavirus, Astrocytoma delayed brain tumor (DBT) cell
[5] = Cytotoxicity against mouse Astrocytoma delayed brain tumor (DBT) cells; type: toxicity, cell-based, Astrocytoma delayed brain tumor (DBT) cell
[6] = Antiviral activity against Porcine delta coronavirus assessed as reduction in viral replication; type: functional, Porcine deltacoronavirus
Ebolavirus [7] = assay: Antiviral activity against EBOV infected in human endothelial cells assessed as reduction in viral replication; type: functional, organism-based; conditions: Orthoebolavirus
Ebolavirus [8] = assay: Antiviral activity against EBOV infected in human Huh-7 cells assessed as reduction in viral replication; type: functional, organism-based; conditions: Orthoebolavirus
Ebolavirus [9] = assay: Antiviral activity against EBOV infected in human primary macrophage cells assessed as reduction in viral replication; type: functional, organism-based; conditions: Orthoebolavirus
Ebolavirus [10] = assay: Antiviral activity against EBOV infected in HFF assessed as reduction in viral replication; type: functional, organism-based; conditions: Orthoebolavirus
Ebolavirus [11] = assay: Antiviral activity against EBOV infected in human HeLa cells assessed as reduction in viral replication; type: functional, organism-based; conditions: Orthoebolavirus
Ebolavirus [12] = assay: Antiviral activity against EBOV infected in rhesus monkey model assessed as protection against viral infection at 10 mg/kg, iv administered once daily fir 12 days relative to control; type: functional; conditions: time 12 day
Nipah virus [13] = assay: Antiviral activity against NiV by virus titre reduction assay; type: functional, organism-based; conditions: Henipavirus nipahense
Nipah virus [14] = assay: Antiviral activity against NiV by antigen reduction assay; type: functional, organism-based; conditions: Henipavirus nipahense
Nipah virus [15] = assay: Antiviral activity against NiV by reporter assay; type: functional, organism-based; conditions: Henipavirus nipahense
Nipah virus [16] = assay: Antiviral activity against NiV by cytopathic effect assay; type: functional, organism-based; conditions: Henipavirus nipahense
[17] = test system: Respiratory syncytial virus; assay: Antiviral activity against RSV; type: functional, organism-based; conditions: human respiratory syncytial virus
Junin virus = assay: Antiviral activity against Argentinian mammarenavirus assessed as inhibition of viral replication; type: functional, organism-based; conditions: Mammarenavirus juninense
Lassa virus = assay: Antiviral activity against Lassa virus assessed as inhibition of viral replication; type: functional, organism-based; conditions: Mammarenavirus lassaense
[18] = Prodrug conversion in rhesus monkey plasma assessed as NTP formation at 10 mg/kg; type: ADME, organism-based, Macaca mulatta; conditions: in vivo
[19] = Prodrug conversion in mouse lungs assessed as NTP formation at 10 mg/kg; type: ADME, organism-based, Lung; conditions: in vivo

In the case of `CCC(CC)COC(=O)[C@H](C)N[P@](=O)(OC[C@H]1O[C@@](C#N)(c2ccc3c(N)ncnn23)[C@H](O)[C@@H]1O)Oc1ccccc1`, the CC50 [1] is reported as > 100000 nM, the IC50 [2] is reported as 25 nM and the EC50 [3] is reported as 74 nM. The EC50 (SARS-CoV-2) was 69 nM, the EC50 (Human coronavirus OC43) was 150 nM and the CC50 [4] was > 10000 nM. The EC50 (Murine hepatitis virus) was 30 nM, the CC50 [5] was 39000 nM and the EC50 [6] was 20 nM. The EC50 (Ebolavirus [7]) was 60 nM, the EC50 (Ebolavirus [8]) was 60 nM and the EC50 (Ebolavirus [9]) was 60 nM. For the same molecule, the EC50 (Ebolavirus [10]) was 60 nM, the EC50 (Ebolavirus [11]) was 60 nM and the Activity (Ebolavirus [12]) was 100%. For the same molecule, the EC50 (Nipah virus [13]) was 29 nM, the EC50 (Nipah virus [14]) was 29 nM and the EC50 (Nipah virus [15]) was 29 nM. For the same molecule, the EC50 (Nipah virus [16]) was 29 nM, the EC50 [17] was 19 nM and the EC90 [17] was 51 nM. For the same molecule, the EC50 (Junin virus) was 470 nM, the EC90 (Junin virus) was 1330 nM and the EC50 (Lassa virus) was 1480 nM. The EC90 (Lassa virus) was 2800 nM, the Drug metabolism [18] was 30 µmol/L and the Drug metabolism [19] was 2 µmol/L.
